Laboratory results reported in patent US20140179681A1, “METHODS AND COMPOSITIONS OF TARGETED DRUG DEVELOPMENT” (priority 2010, published 2014).
Structures can show the parent of a compound that is named as a salt. Where two headings read alike, the source gives them in different places.

Columns and labels:
MDBK line = assay: MTT Cell Proliferation Assay, MDBK cells; assay type: cell-based, bovine; conditions: Bos taurus, MDBK, second value of 'a/b (c)'; taken as MDBK cells; read-out: MTT Screen, second value of cell
Text: (§1) The following example describes the MTT Cell Proliferation Assay.
(§2) The MTT Cell Proliferation Assay is a colorimetric assay system that measures the reduction of the tetrazolium salt MTT (3-(4,5-dimethylthiazol-2-yl)-2,5-diphenyltetrazolium bromide) into insoluble formazan crystals, produced by the mitochondria of viable cells. […] The color can then be quantified by spectrophotometric means. Among the applications for the method are drug sensitivity, cytotoxicity, response to growth factors, and cell activation. The reduction of tetrazolium salts is now recognized as a safe, accurate alternative to radiometric testing.
(§3) Two replicates on each cell plate and 2 duplicate plates gave 4 individual replicates of each concentration, in each cell line. Concentrations were diluted in 100% DMSO from 25 mM stocks.
(§4) Twelve 96 well plates of each cell line were plated. Plating was done by dislodging cells as in passage protocol, counting on a hemocytometer, re-suspending in standard growth media, and plating using a multichannel pippetor.
(§5) 16 μl of 25 mM stock+34 μl DMSO=8 mM starting concentrations, and serial diluted as with test compounds in same plate. […] Two replicates of each concentrations was run on each cell plate. All compound addition and cell treatments were done using aseptic technique under a laminar flow aseptic hood.
(§6) Control: 0.5% DMSO in treatment media was used as the control.
(§7) MTT dye (Thiazolyl Blue Tetrazolium Bromide, Sigma cat #M5655) stock was prepared in bulk and stored at 4° C. for use: 5 mgs/ml sterile PDS, shielded from light. 4 ul of this stock per 100 uls treatment media per well was used.
(§8) Plates were incubated overnight prior to treatment, with treatment day=Day 0. Compound treatments were prepared prior to washing cells to minimize time cells were dry at room temperature after final aspiration. Compounds were diluted in 100% DMSO in 96 well polypropylene plates: 40 μl 25 mM stock+10 μl DMSO=20 mM; 20 μl of 20 mM+30 μl DMSO=8 mM; 20 μl of 8 mM+30 μl DMSO=3.2 mM; 20 μl of 3.2 mM+30 μl DMSO=1.3 mM; 20 μl of 1.3 mM+30 μl DMSO=0.51 mM.
(§9) 5.0 μl/ml were added to treatment media, in sterile, 2.2 ml deep well plates=0.5% dmso final. Ten μl of each dmso concentration was added to 2.0 ml of treatment media and then mixed using a 1200 μl multichannel pipettor. Cell plates were treated from the deep well plates. Treatment media was standard growth media containing 0.5% FBS and standard additions. This reduced FBS concentration allowed for a slower growth rate in cells.
(§10) Media was aspirated from cell plates, and washed with 200 μl/well sterile PBS. Aspirated PBS wash, and cell plates were treated with 200 μl of compound/treatment media per well, and incubated at 37° C., 5% CO2 for 3 days.
(§11) Prior to harvesting, visual observations were made under an inverted microscope. Plates were harvested by: aspirating the growth media; adding back MTT dye/100 μl treatment media; and incubating plates at 37° C. for 1 hour. MTT dye was aspirated. 100 μl/well dmso was added, and then shaken on a Bellco plate shaker for 5 minutes, at 4.5 setting.
(§12) Plates were read in a Tecan Sunrize UV plate reader, at 560 nm. Settings: Read mode, Outside Normal 2 sec; Shake settle time 3 sec. Data is reported as % inhibition, calculated for individual plates using control values from that plate.

[1] = test system: epithelial carcinoma A431 cell line; assay: MTT Cell Proliferation Assay, A431 cells; assay type: cell-based; conditions: for MTT Assay IC50(A431/MDBK): A431: A431 cells; for MTT assay, % at 2.6 microMolar: cell line not stated
Text: as §1, §2, §3, §4, §5, §6, §7, §8, §9, §10, §11, §12

EGFR = biological target: T1, EGFR (Homo sapiens, UniProt P00533); assay: EGFR in-cell Western (ICW) screening protocol (EGFR inhibition assay); assay type: cell-based; design: ICW 1 / ICW 2 / ICW Avg: unit not given here; conditions: for ICW Avg / ICW 1 / ICW 2: ICW assay; for ICW Avg: average of runs 1 and 2; for ICW 1: run 1; for ICW 2: run 2; for ICW assay: Table 10, % Inhibition of EGF dependent EGFR phosphorylation in A431 cells, compound 125 μM in assay
T1 construct: host or cells: A431
Method: The following example describes general EGFR in-cell Western (ICW) screening protocol. Methods are according to Chen et al. (2005) Analytical Biochemistry 338, 136-142 (incorporated herein by reference), except as otherwise noted.
Cell Plates: A431 cells (ATCC # CRL-1555) were grown in Dulbecco's Modified Eagle Medium (DMEM; ATCC #30-2002) supplemented with 10% fetal bovine serum, 105 units/ml pen/strep (Invitrogen #15140155) and 2.1 mM L-glutamine (ATCC #30-2214). Cells were seeded into 96 well tissue culture plates (BD Falcon #353948) at a density of 30,000 cells per well and incubated at 37° C. with 5% CO2 overnight. Two cell plates were prepared for each compound plate.
Serum Starvation: The cells were serum starved prior to compound addition. The media was removed by aspiration and the cells washed with PBS (200 μl/well; Invitrogen #20012-027). The PBS was removed by aspiration and replaced with 200 μl of DMEM (ATCC #30-2002) supplemented with 105 units/ml pen/strep (Invitrogen #15140155) and 2.1 mM 1-glutamine (ATCC #30-2214). The cell plates were incubated at 37° C./5% CO2 for 2 hours.
Compound Plate Preparation: The test compounds were solvated in 100% DMSO (Sigma #472301-2L) at a concentration of 25 mM. Compounds found not to be completely soluble in 100% DMSO at 25 mM were diluted to 10 mM with 100% DMSO and TFA (Fluka #91699) added to a final concentration of 0.2%. 40 μl of test compound was added to the appropriate well of a 96 well plate (Falcon #351190). As controls, 6 μM EGFR kinase inhibitor PD168393 (EMD/Calbiochem #513033) in 100% DMSO and DMSO alone were added to various wells. Prepared compound plates were stored at RT prior to use and at 4° C. long term.
Compound Dilution Plate Preparation: 250 μl of DMEM supplemented with 1 mg/ml BSA (Sigma A3059-10G) was added to the appropriate wells of a 96 well plate to prepare the compound dilution plates. Using a multichannel pipettor, 1.25 μl of compound from the compound plate was transferred into the compound dilution plate.
Compound Addition: The starve media was removed from the cell plates by aspiration. Using a multichannel pipettor, the compound dilution plates were mixed by pipetting up and down three times. 50 μl of mixed, diluted compound was added to each of two rows/columns on each of two cell plates. The cell plates with compound were incubated at 37° C./5% CO2 for 4 hours.
EGF Addition: 20 ng/ml EGF (Upstate #01-107) was prepared in DMEM supplemented with 1 mg/ml BSA. 50 μl of 20 or 0 ng/ml EGF was added to the appropriate wells without the removal of compound. The compound and EGF were mixed by pipetting up and down three times. The plates were incubated at 37° C./5% CO2 for 10 min. In some screening assays the final concentration of EGF used for simulation was 6.6, or 12.5 ng/ml rather than 10 ng/ml.
Fixation and Triton Washing: The EGF+compound was removed by aspiration and 150 μl of freshly prepared Fixation Solution (1×PBS, Sigma P3813-10PK, and 4% Formaldehyde, Pierce #28908) was immediately added. The plates were incubated at RT for 20 min without shaking. The Fixation Solution was removed by aspiration and the plates washed four times with 200 μl each of Triton Wash Solution (1×PBS, Sigma P3813-10PK, and 0.1% Triton X-100, T8787-50ML) for 5 min with gentle shaking.
Blocking and Probing: Following the last Triton Wash, the plates were blocked for 1.5 h at RT with shaking using 150 μl of Odyssey Blocking Buffer (LI-COR #927-40000). The block was removed by aspiration and 50 μl of diluted primary Ab mix was added. The plates were incubated at 4° C. overnight with gentle shaking. The plates were washed five times with 200 μl of PBST (1×PBS, Sigma P3813-10PK, and 0.1% Tween-20, Sigma P9416-50ML) for 5 min each with shaking 50 μl of diluted secondary Ab mix was added and the plates incubated at RT for 1 h with shaking. The plates were washed 5× with 200 μl of PBST for 5 min each with shaking. […]

[2] = Homo sapiens, A-431, first value of 'a/b (c)', taken as A431 cells, read-out: MTT Screen, first value of cell
[3] = first value of 'a/b (c)', taken as A431 cells

T1 sequence (P00533 25-1210): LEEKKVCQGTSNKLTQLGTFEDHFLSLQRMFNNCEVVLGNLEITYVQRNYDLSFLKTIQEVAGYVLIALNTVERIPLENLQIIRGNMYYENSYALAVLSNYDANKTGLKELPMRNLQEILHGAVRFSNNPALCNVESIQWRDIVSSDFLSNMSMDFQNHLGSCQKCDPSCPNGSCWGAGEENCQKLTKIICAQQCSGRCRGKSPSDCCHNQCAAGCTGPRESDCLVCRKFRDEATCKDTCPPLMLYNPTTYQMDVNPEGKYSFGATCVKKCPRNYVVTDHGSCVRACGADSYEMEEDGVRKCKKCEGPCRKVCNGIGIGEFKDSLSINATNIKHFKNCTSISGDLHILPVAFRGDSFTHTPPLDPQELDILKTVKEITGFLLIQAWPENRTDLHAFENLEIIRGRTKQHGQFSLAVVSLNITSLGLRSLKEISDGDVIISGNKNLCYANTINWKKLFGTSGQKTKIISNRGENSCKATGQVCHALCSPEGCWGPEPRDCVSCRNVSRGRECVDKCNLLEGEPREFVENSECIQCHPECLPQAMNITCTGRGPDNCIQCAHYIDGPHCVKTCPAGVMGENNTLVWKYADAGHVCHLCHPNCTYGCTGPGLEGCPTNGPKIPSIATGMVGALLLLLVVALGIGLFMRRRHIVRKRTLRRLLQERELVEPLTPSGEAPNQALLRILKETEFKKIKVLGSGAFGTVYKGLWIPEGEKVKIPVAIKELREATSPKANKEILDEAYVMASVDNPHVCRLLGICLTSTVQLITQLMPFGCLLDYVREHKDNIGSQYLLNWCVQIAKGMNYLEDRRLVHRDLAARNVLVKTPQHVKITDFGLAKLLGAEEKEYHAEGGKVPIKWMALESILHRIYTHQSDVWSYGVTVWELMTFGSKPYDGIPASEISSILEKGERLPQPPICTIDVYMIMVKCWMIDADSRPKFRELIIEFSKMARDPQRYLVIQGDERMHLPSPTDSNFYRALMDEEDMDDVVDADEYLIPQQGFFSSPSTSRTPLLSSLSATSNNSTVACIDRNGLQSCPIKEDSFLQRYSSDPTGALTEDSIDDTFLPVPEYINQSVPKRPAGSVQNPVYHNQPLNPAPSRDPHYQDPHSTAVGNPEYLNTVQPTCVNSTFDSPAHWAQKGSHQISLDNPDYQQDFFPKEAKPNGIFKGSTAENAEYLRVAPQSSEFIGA

Structure (SMILES) | ICW Screen (ICW Inhibition) (EGFR) | MTT Assay IC50(A431/MDBK): A431 ([1]; first value of cell) | ICW Avg (EGFR) | ICW 1 (EGFR) | ICW 2 (EGFR) | also measured
CC(C)NS(=O)(=O)c1ccc(NC(=S)NC(=O)CCCCCOc2ccc(Cl)cc2Cl)cc1 [AD4-11538] | 34.978 | – | – | – | – | IC50 (MDBK line): 5.19 µM; IC50 [1, 2]: 5.48 µM
Cc1ccc(C2CC(=O)c3cnc(Nc4nc(C)c5cccc(C)c5n4)nc3C2)cc1 (centres unmarked) [11673 + TFA] | – | non-convergent | 25.35 | 33.30 | 17.39 | –
CC(C)C(=O)NC(=S)Nc1ccc(S(=O)(=O)N2CCCC2)cc1 [AD4-11970] | 43.246 | – | – | – | – | MTT Screen, first value of cell [1, 3]: non- conver- gent
CCOc1cccc2c(C)nc(Nc3nc(C)c(Cc4ccc(C)cc4)c(=O)[nH]3)nc12 [11753 + TFA] | – | NOT ACTIVE | 44.86 | 42.44 | 47.28 | –
CCOc1cccc2c(C)nc(Nc3nc(-c4ccccc4)cc(=O)[nH]3)nc12 [compound 11492] | – | non-convergent | 62.29 | 53.35 | 71.23 | –
COC(=O)CCC(=O)NC(=S)Nc1ccc(S(=O)(=O)Nc2cc(C)cc(C)c2)cc1 [AD4-12093] | 29.436 | – | – | – | – | MTT Screen, first value of cell [1, 3]: non- conver- gent
Cc1cc(C)c2nc(Nc3nc(CSc4ccc(Cl)cc4)cc(=O)[nH]3)nc(C)c2c1 [11726 + TFA] | – | NOT ACTIVE | 30.87 | 35.72 | 26.02 | –
CC1CCc2cc(F)ccc2N1S(=O)(=O)c1ccc(NC(=S)Nc2cc(Cl)cc(Cl)c2)cc1 (centres unmarked) [AD4-12843] | – | – | – | – | – | MTT assay, % at 2.6 microMolar ([1]; Table 10): 74%; ICW assay (EGFR): 43.3347
COc1ccc(C2CC(=O)c3cnc(Nc4nc(-c5ccccc5)c5ccccc5n4)nc3C2)cc1 (centres unmarked) [11663 + TFA] | – | non-convergent | 26.73 | 31.73 | 21.73 | –
Cc1cc(C)c2nc(NC3=NC(c4ccccc4)CC(=O)N3)nc(C)c2c1 (centres unmarked) [AD4-12641 + TFA] | – | NOT ACTIVE | 72.20 | 70.26 | 74.15 | –
CCCc1cc(=O)[nH]c(Nc2nc(C)c3ccc(OC)cc3n2)n1 [AD4-12652 + TFA] | – | NOT ACTIVE | 73.45 | 82.35 | 64.55 | –
CCCC(=O)NC(=S)Nc1ccc(S(=O)(=O)Nc2cc(C)on2)cc1 [AD4-12267] | 30.36 | – | – | – | – | MTT Screen, first value of cell [1, 3]: non- conver- gent
Cc1ccc2c(C)nc(Nc3nc(C)cc(=O)[nH]3)nc2c1 [11725 + TFA] | – | – | 28.93 | 26.65 | 31.20 | IC50 ([1]; Homo sapiens, A-431, A431 cells, first value of cell, read-out: MTT Assay IC50(A431/MDBK): A431): 13 µM
O=S(=O)(c1ccc(NC(=S)Nc2cccc(C(F)(F)F)c2)cc1)N1CCc2ccccc21 [AD4-12239] | – | – | – | – | – | MTT assay, % at 2.6 microMolar ([1]; Table 10): 58%; ICW assay (EGFR): 67.8291
Cc1ccc(C)c(NC(=S)Nc2ccc(S(=O)(=O)N3c4ccc(F)cc4CCC3C)cc2)c1 (centres unmarked) [AD4-12824] | – | – | – | – | – | MTT assay (first value) ([1]; Table 10, first of x/y(ratio): A431, three day treatment, unit not printed (doses in μM)): Not Active; ICW assay (EGFR): 25.9501
CC1CCc2cc(F)ccc2N1S(=O)(=O)c1ccc(NC(=S)Nc2cccc(C(F)(F)F)c2)cc1 (centres unmarked) [AD4-12846] | – | – | – | – | – | MTT assay, % at 2.6 microMolar ([1]; Table 10): 71%; ICW assay (EGFR): 71.4924

The next lines start with results.

ICW Screen (ICW Inhibition) (EGFR) | MTT Assay IC50(A431/MDBK): A431 ([1]; first value of cell) | ICW Avg (EGFR) | ICW 1 (EGFR) | ICW 2 (EGFR) | Structure (SMILES) | also measured
74.94 | – | – | – | – | CCOc1ccc(NS(=O)(=O)c2ccc(NC(=S)NC(=O)CC)cc2)cc1 [AD4-11409] | IC50 (MDBK line): 11.7 µM; IC50 [1, 2]: 17.2 µM
50.528 | – | – | – | – | Cc1ccc(NS(=O)(=O)c2ccc(NC(=S)NC(=O)COc3ccc(Cl)cc3C)cc2)c(C)c1 [AD4-12152] | IC50 (MDBK line): 16.2 µM; IC50 [1, 2]: 21 µM
35.584 | – | – | – | – | CN(c1ccccc1)S(=O)(=O)c1ccc(NC(=S)NC(=O)/C=C/c2cccs2)cc1 [AD4-12288] | MTT Screen, first value of cell [1, 3]: non- conver- gent
45.64 | – | – | – | – | CN(c1ccccc1)S(=O)(=O)c1ccc(NC(=S)NC(=O)C2CC2)cc1 [AD4-12164] | IC50 [1, 2]: 50.6 µM; IC50 ([1]; first value of 'a/b (c)', taken as A431 cells, read-out: MTT Screen, first value of cell): 51.4 µM
34.592 | – | – | – | – | CC(C)C(=O)NC(=S)Nc1ccc(S(=O)(=O)N(C)c2ccccc2)cc1 [AD4-12042] | MTT Screen, first value of cell [1, 3]: non- conver- gent
